Laboratory results taken from patent publication US6649753B2, “Stable salts of S-adenosyl-L-methionine (SAMe) and the process for their preparation” (Orchid Chemicals & Pharmaceuticals Ltd., priority 2001, dated 2003).

Assay: Accelerated stability of SAMe salts (ICH guidelines, HPLC)
Assay type: physicochemical
Conditions: 40-45° C. with 70-75% Relative Humidity
Description: Assessment of stability of the above SAMe salts has been done as per the ICH guidelines at 40-45° C. with 70-75% Relative Humidity and an improved HPLC method has been employed which resolves all the impurities formed on degrading SAMe (Table I). This method of HPLC analysis is the best method known so far to study stability of SAMe and has been validated as per the ICH guidelines. The details of the HPLC method followed and the accelerated stability report are as under:
Column=YMC-ODS-A, 4.6 mm×25 cm, C-18, 5 micron
Buffer=A mixture of 0.02 M citric acid & 0.01 M sodium dihydrogen orthophosphate
Mobile phase=using acetonitrile water with citric acid buffer
Detector=UV at 254 nm wavelength
Flow rate=1.5 ml per min.
Column temperature=25° C.
The percentage of SAMe after storage at the specified temperature was determined using the content of SAMe after storage and the content of SAMe before storage, i.e., initial content of SAMe in the corresponding salt using the following equation: [formula]

- SAMe Residual Ratio (accelerated storage period 30 days): 97.5%
- SAMe Residual Ratio (accelerated storage period 60 days): 95.2%
- SAMe Residual Ratio (accelerated storage period 90 days): 94.5%
Substance: SAMe disulfate catechol-3,5-disulfonate or its sodium salt [Salt II]
